In US6861420B2, “N-substituted 1,2,4,5-tetrahydro-1H-benzo[d]azepine compounds” (Pharmacia & Upjohn Company, priority 2001, dated 2005):

SMILES	melting point
O=C(Nc1ccc(Oc2ccc(Cl)cc2)nc1)N1CCc2ccccc2CC1 [Example 10, N-[6-(4-Chlorophenoxy)pyridin-3-yl]-1,2,4,5-tetrahydro-3H-3-benzazepine-3-carboxamide]	135 to 137 °C
O=C(N[C@@H]1CN2CCC1CC2)N1CCc2ccccc2CC1	128 to 132 °C
O=C(Nc1ccc(Oc2ccccc2F)nc1)N1CCc2ccccc2CC1 [Example 11, N-[6-(2-Fluorophenoxy)pyridin-3-yl]-1,2,4,5-tetrahydro-3H-3-benzazepine-3-carboxamide]	170 to 172 °C
Cc1cc(Oc2ccc(NC(=O)N3CCc4ccccc4CC3)cn2)ccc1Cl [Example 14, N-[6-(3-Methyl-4-chlorophenoxy)pyridin-3-yl]-1,2,4,5-tetrahydro-3H-3-benzazepine-3-carboxamide]	171 to 173 °C
CC(C)Oc1ccccc1Oc1ccc(NC(=O)N2CCc3ccccc3CC2)cn1 [Example 12, N-[6-(2-isopropoxyphenoxy)pyridin-3-yl]-1,2,4,5-tetrahydro-3H-3-benzazepine-3-carboxamide]	149 to 152 °C
Cc1ncccc1Oc1ccc(NC(=O)N2CCc3ccc(-n4c(C)ccc4C)cc3CC2)cn1 [Example 2, 7-(2,5-Dimethyl-1H-pyrrol-1-yl)-N-{6-[(2-methylpyridin-3-yl)oxy]pyridin-3-yl}-1,2,4,5-tetrahydro-3H-3-benzazepine-3-carboxamide]	101 °C (dec.)
O=C(Nc1cccnc1Cl)N1CCc2ccccc2CC1 [Example 6, N-[2-Chloropyridin-3-yl]-1,2,4,5-tetrahydro-3H-3-benzazepine-3-carboxamide]	120 to 122 °C
Cc1ncccc1Oc1ccc(NC(=O)N2CCc3ccccc3CC2)cn1 [Example 1, N-{6-[(2-methylpyridin-3-yl)oxy]pyridin-3-yl}-1,2,4,5-tetrahydro-3H-3-benzazepine-3-carboxamide]	171 to 173 °C
O=C(NC1CN2CCC1CC2)N1CCc2ccccc2CC1 (stereo not shown)	> 120 °C (dec.)
Cc1cc(Oc2ccc(NC(=O)N3CCc4ccccc4CC3)cn2)cc(C)c1Cl [Example 16, N-[6-(4-Chloro-3,5-dimethylphenoxy)pyridin-3-yl]-1,2,4,5-tetrahydro-3H-3-benzazepine-3-carboxamide]	208 to 209 °C

Now from value to molecule:

melting point	SMILES
144 to 146 °C	O=C(Nc1cccnc1)N1CCc2ccccc2CC1 [Example 5, 1,2,4,5-Tetrahydro-benzo[d]azepine-3-carboxylic acid pyridin-3-ylamide]
170 to 172 °C	O=C(Nc1ccc(Cl)nc1)N1CCc2ccccc2CC1 [Example 7, N-(6-chloropyridin-3-yl)-1,2,4,5-tetrahydro-3H-3-benzazepine-3-carboxamide]
156 to 157 °C	COc1ccc(Oc2ccc(NC(=O)N3CCc4ccccc4CC3)cn2)cc1 [Example 9, N-[6-(4-Methoxyphenoxy)pyridin-3-yl]-1,2,4,5-tetrahydro-3H-3-benzazepine-3-carboxamide]
154 to 155 °C	O=C(Nc1ccc(Oc2ccc(Cl)cc2Cl)nc1)N1CCc2ccccc2CC1 [Example 15, N-[6-(2,4-Dichlorophenoxy)pyridin-3-yl]-1,2,4,5-tetrahydro-3H-3-benzazepine-3-carboxamide]
151 to 153 °C	Cc1cc(Cl)ccc1Oc1ccc(NC(=O)N2CCc3ccccc3CC2)cn1 [Example 13, N-[6-(2-Methyl-4-chlorophenoxy)pyridin-3-yl]-1,2,4,5-tetrahydro-3H-3-benzazepine-3-carboxamide]
214 to 216 °C	O=C(NC1CCCNC1)N1CCc2ccccc2CC1 (stereo not shown) [Example 17, N-Piperidin-3-yl-1,2,4,5-tetrahydro-3H-3-benzazepine-3-carboxamide]
